Tests used:
JEG-3 cells [1] = settings: Biol. Reprod. (2007) 76: 203-10; cited from earlier work
JEG-3 cells [2] = assay: JEG-3 protocol: [3H]-thymidine incorporation / proliferation (leptin assay in non-recombinant system); assay type: cell-based; settings: FIG. 6
From the text: Leptin Assay in Non-Recombinant System
It seems that overexpression of the receptor (as well as the possibility for different drugs to act on different parts of the signaling pathway triggered by leptin association with its receptor) results in most cases in the absence of activity of the drugs tested.
The leptin receptor expression in non-recombinant system is often fluctuating and care must be given to identify a system where signal stability remains within experiments. Using such a system, leptin receptor antagonist mimetics could be identified by evaluating is their action vs. leptin (see below).
Leptin is produced chiefly in adipose cells, but in humans, mRNA encoding leptin is also present in the placenta. Here, leptin might play an important proliferative role in the microvasculature. The possibility to use this hypothesis in a native cell line was evaluated.
In JEG-3 cells (choriocarcinoma cell line) leptin is able to stimulate proliferation up to 3 fold (Biol. Reprod. (2007) 76: 203-10). […] The radioactivity incorporated by the cells is an index of their proliferative activity and is measured in counts per minute (CPM) with a liquid scintillation beta counter. […]

Leptin: a hormone synthesized in fat cells that is believed to act in the hypothalamus to reduce food intake and body weight
stimulation of proliferation (JEG-3 cells [1]): up to 3 fold
EC50 (JEG-3 cells [2]; JEG-3 cells (choriocarcinoma cell line), read-out: EC50, concentration-dependent increase in [3H]-thymidine incorporation): 2.1 nM
concentration of maximal effect on [3H]-thymidine incorporation (JEG-3 cells [2]; JEG-3 cells): 100 nM
